Converted amounts (≈) assume the structure as drawn. “And” between values parts separate entries of the source, which are not always exact repeats. Identical values can stand only once. Residues, ends and D or L forms follow the SMILES beside them.
Key:
P. aeruginosa ATCC 27853 [1] = experiment: Neutropenic mouse bloodstream infection model; format: in vivo; details: single IV dose 4 mg/kg; for Log10 CFU/mL blood at 4 h, Mean / Δlog10 CFU/mL blood (mean) / Log10 CFU/mL blood at 4 h, single mouse: 4 h; for Δlog10 CFU/mL blood (mean): treated minus control, mean of replicates; for Δlog10 CFU/mL blood (mean) / Log10 CFU/mL blood at 4 h, single mouse / Delta Log10 CFU/mL blood at 4 h, single mouse: 4 mg/kg; for Delta Log10 CFU/mL blood at 4 h, single mouse: treated mouse minus mean of vehicle mice
Experimental: The experimental methodology for the neutropenic mouse bloodstream infection model was described previously. Briefly, 7-week-old female Swiss mice (22–28 g) were rendered neutropenic by intraperitoneal administration of cyclophosphamide, 4 days (150 mg/kg) and 1 day (100 mg/kg) prior to inoculation. Bloodstream infection was established by intravenous administration of a 50 µL bolus of early log-phase bacterial suspension (4 × 10^8 CFU/mL). Lipopeptide solutions were prepared at 1 mg/mL (free base) in sterile saline. At 2 h after inoculation, mice (n = 3) were injected intravenously with lipopeptide solution at 4 mg/kg (free base) or saline control. At 0 and 4 h after administration, blood was collected, diluted serially in sterile saline, and plated on nutrient agar plates. Agar plates were incubated at 37 °C overnight for bacterial colony counting and the bacterial load in the blood (log10 CFU/mL) in each mouse was calculated. In vivo efficacy was calculated as the difference of the log10 CFU/mL blood values between the treated mice and the saline-treated mice at 4 h post dosing (Δlog10 CFU/mL blood = log10 [treated] CFU/mL blood − log10[control] CFU/mL blood).

P. aeruginosa ATCC 27853 [2] = format: cell-based, Pseudomonas aeruginosa; details: for MIC P. aeruginosa ATCC 27853 / MIC, No Survanta: ATCC 27853
Experimental: (§1) MICs were determined in cation-adjusted Mueller–Hinton broth (CaMHB) by the broth micro-dilution method against ATCC strains and clinical isolates. MICs in the presence of Survanta® were determined as described above against P. aeruginosa ATCC 27853. In the 100 μL of fresh CaMHB containing polymyxins, 10% Survanta® (v/v, 2.5 mg/mL phospholipids) was added. MICs in the presence and absence of Survanta® were compared to determine the effect of binding to lung surfactant on the antibacterial activity of polymyxins.

[3] = test system: P. aeruginosa FADDI-PA025; format: cell-based, Pseudomonas aeruginosa; details: FADDI-PA025
Experimental: as §1

[4] = test system: P. aeruginosa FADDI-PA038; format: cell-based, Pseudomonas aeruginosa; details: FADDI-PA038
Experimental: as §1

A. baumannii FADDI-AB034 = format: cell-based, Acinetobacter baumannii; details: FADDI-AB034
Experimental: as §1

A. baumannii FADDI-AB030 = format: cell-based, Acinetobacter baumannii; details: FADDI-AB030
Experimental: as §1

A. baumannii ATCC 19606 = format: cell-based, Acinetobacter baumannii; details: ATCC 19606
Experimental: as §1

Swiss mice, kidney = experiment: Nephrotoxicity in mice (kidney histopathology); format: in vivo, mouse; details: for Kidney histopathology (SQS Score): 72 mg/kg/d subcutaneously in six divided doses every 2 h, n = 3; for Kidney histopathology, mice with the SQS score: mouse, in vivo
Experimental: The experimental methodology has been previously reported by our group. Briefly, individual lipopeptide solutions were prepared in sterile saline (6 mg/mL). Swiss mice (female, 7-week-old, 22–28 g) were subcutaneously administered at 12 mg/kg in, 6 doses every 2 h to reach a total dose of 72 mg/kg (n = 3). For high-dose nephrotoxicity experiments, mice were intraperitoneally administered at 20 or 25 mg/kg, in 6 doses every 2 h to reach a total dose of 120 mg/kg (n = 6) or 150 mg/kg (n = 3). At 20 h after the last dose, the right kidney from each mouse was collected and placed in 10% buffered (pH 7.4) formalin (Sigma-Aldrich, Castle Hill, NSW, Australia). The kidneys were subjected to histological examination at the Australian Phenomics Network-Histopathology and Organ Pathology (University of Melbourne, Parkville, VIC, Australia), who was blind to the treatment groups.

[5] = test system: K. pneumoniae FADDI-KP065; format: cell-based, Klebsiella pneumoniae; details: FADDI-KP065
Experimental: as §1

[6] = test system: K. pneumoniae FADDI-KP032; format: cell-based, Klebsiella pneumoniae; details: FADDI-KP032
Experimental: as §1

SMILES	Log10 CFU/mL blood at 4 h, Mean (P. aeruginosa ATCC 27853 [1]) [Log10 CFU/mL blood]	Δlog10 CFU/mL blood (mean) (P. aeruginosa ATCC 27853 [1]) [log10 CFU/mL blood]	Log10 CFU/mL blood at 4 h, single mouse (P. aeruginosa ATCC 27853 [1])	Delta Log10 CFU/mL blood at 4 h, single mouse (P. aeruginosa ATCC 27853 [1])	MIC P. aeruginosa ATCC 27853 (P. aeruginosa ATCC 27853 [2]) [µg/mL]	MIC P. aeruginosa FADDI-PA025 [3] [µg/mL]	MIC P. aeruginosa FADDI-PA038 [4] [µg/mL]	MIC A. baumannii FADDI-AB034 (A. baumannii FADDI-AB034) [µg/mL]	MIC A. baumannii FADDI-AB030 (A. baumannii FADDI-AB030) [µg/mL]	MIC A. baumannii ATCC 19606 (A. baumannii ATCC 19606) [µg/mL]	Kidney histopathology (SQS Score) (Swiss mice, kidney)	Kidney histopathology, mice with the SQS score (Swiss mice, kidney)	MIC K. pneumoniae FADDI-KP065 [5] [µg/mL]	MIC K. pneumoniae FADDI-KP032 [6] [µg/mL]	impact of lung surfactant on MIC (P. aeruginosa ATCC 27853 [2]; 10% Survanta vs none)	MIC, No Survanta (P. aeruginosa ATCC 27853 [2]) [µg/mL]
CCCCCCCC(=O)N[C@@H](CCN)C(=O)N[C@H](C(=O)N[C@@H](CCN)C(=O)N[C@H]1CCNC(=O)[C@H]([C@@H](C)O)NC(=O)[C@H](CCN)NC(=O)[C@H](CCN)NC(=O)[C@H](CC(C)C)NC(=O)[C@@H]([C@H](C)O)NC(=O)[C@H](CCN)NC1=O)[C@@H](C)O [Lipopeptide F228] (HELM PEPTIDE1{[CCCCCCCC(=O)[*:2]].[Dab].T.[Dab].[Dab].[Dab].[dT].L.[Dab].[Dab].T}$PEPTIDE1,PEPTIDE1,5:R3-11:R2$$$V2.0)	4.13	−3.39	3.99 Log10 CFU/mL blood and 4.11 Log10 CFU/mL blood and 4.28 Log10 CFU/mL blood	-3.52 Log10 CFU/mL blood and -3.40 Log10 CFU/mL blood and -3.24 Log10 CFU/mL blood	0.25 (≈ 0.219 µM)	32 (≈ 28 µM)	32 (≈ 28 µM)	32 (≈ 28 µM)	16 (≈ 14 µM)	>32	+1 (SQS + 1 = mild damage (overall score, 1 to <15))	1/3	16 (≈ 14 µM)	2 (≈ 1.75 µM)	–	–
CCCCCCCC(=O)N[C@@H](CCN)C(=O)N[C@H](C(=O)N[C@@H](CN)C(=O)N[C@H]1CCNC(=O)[C@H]([C@@H](C)O)NC(=O)[C@H](CCN)NC(=O)[C@H](CCN)NC(=O)[C@H]([C@@H](C)O)NC(=O)[C@@H](CC(C)C)NC(=O)[C@H](CCN)NC1=O)[C@@H](C)O [Lipopeptide F251] (HELM PEPTIDE1{[CCCCCCCC(=O)[*:2]].[Dab].T.[NC[C@H](N[*:1])C(=O)[*:2]].[Dab].[Dab].[dL].T.[Dab].[Dab].T}$PEPTIDE1,PEPTIDE1,5:R3-11:R2$$$V2.0)	5.87	−1.57	6.12 Log10 CFU/mL blood and 5.83 Log10 CFU/mL blood and 5.67 Log10 CFU/mL blood	-1.33 Log10 CFU/mL blood and -1.61 Log10 CFU/mL blood and -1.78 Log10 CFU/mL blood	0.5 (≈ 0.443 µM)	8 (≈ 7.08 µM)	0.5 (≈ 0.443 µM)	0.25 (≈ 0.221 µM)	0.25 (≈ 0.221 µM)	0.5 (≈ 0.443 µM)	0 (SQS 0 = no significant change (overall score, <1))	3/3	<0.125	<0.125	slightly impacted	0.5 (≈ 0.443 µM)
CCCCCCCC(=O)N[C@@H](CCN)C(=O)N[C@H](C(=O)N[C@@H](CCCN)C(=O)N[C@H]1CCNC(=O)[C@H]([C@@H](C)O)NC(=O)[C@H](CCN)NC(=O)[C@H](CCN)NC(=O)[C@H]([C@@H](C)O)NC(=O)[C@@H](CC(C)C)NC(=O)[C@H](CCN)NC1=O)[C@@H](C)O [Lipopeptide F252] (HELM PEPTIDE1{[CCCCCCCC(=O)[*:2]].[Dab].T.[Orn].[Dab].[Dab].[dL].T.[Dab].[Dab].T}$PEPTIDE1,PEPTIDE1,5:R3-11:R2$$$V2.0)	5.46	−1.98	5.30 Log10 CFU/mL blood and 5.91 Log10 CFU/mL blood and 5.19 Log10 CFU/mL blood	-2.15 Log10 CFU/mL blood and -1.54 Log10 CFU/mL blood and -2.26 Log10 CFU/mL blood	0.5 (≈ 0.432 µM)	>32	2 (≈ 1.73 µM)	1 (≈ 0.864 µM)	0.5 (≈ 0.432 µM)	1 (≈ 0.864 µM)	+1 (SQS + 1 = mild damage (overall score, 1 to <15))	2/3	0.5 (≈ 0.432 µM)	<0.125	–	–
CCCCCCCC(=O)N[C@@H](CCN)C(=O)N[C@H](C(=O)N[C@@H](CN)C(=O)N[C@H]1CCNC(=O)[C@H]([C@@H](C)O)NC(=O)[C@H](CCN)NC(=O)[C@H](CCN)NC(=O)[C@H](C)NC(=O)[C@@H](CC(C)C)NC(=O)[C@H](CCN)NC1=O)[C@@H](C)O [Lipopeptide F271] (HELM PEPTIDE1{[CCCCCCCC(=O)[*:2]].[Dab].T.[NC[C@H](N[*:1])C(=O)[*:2]].[Dab].[Dab].[dL].A.[Dab].[Dab].T}$PEPTIDE1,PEPTIDE1,5:R3-11:R2$$$V2.0)	5.18	−2.27	5.01 Log10 CFU/mL blood and 5.37 Log10 CFU/mL blood and 5.15 Log10 CFU/mL blood	-2.43 Log10 CFU/mL blood and -2.08 Log10 CFU/mL blood and -2.30 Log10 CFU/mL blood	0.5 (≈ 0.455 µM)	16 (≈ 14.6 µM)	1 (≈ 0.91 µM)	0.25 (≈ 0.227 µM)	0.25 (≈ 0.227 µM)	0.5 (≈ 0.455 µM)	0 (SQS 0 = no significant change (overall score, <1))	3/3	<0.125	<0.125	–	–
CCCCCCCC(=O)N[C@@H](CCN)C(=O)N[C@H](C(=O)N[C@H](CN)C(=O)N[C@H]1CCNC(=O)[C@H]([C@@H](C)O)NC(=O)[C@H](CCN)NC(=O)[C@H](CCN)NC(=O)[C@H]([C@@H](C)O)NC(=O)[C@@H](CC(C)C)NC(=O)[C@H](CCN)NC1=O)[C@@H](C)O [Lipopeptide F300] (HELM PEPTIDE1{[CCCCCCCC(=O)[*:2]].[Dab].T.[NC[C@@H](N[*:1])C(=O)[*:2]].[Dab].[Dab].[dL].T.[Dab].[Dab].T}$PEPTIDE1,PEPTIDE1,5:R3-11:R2$$$V2.0)	5.31	−1.53	5.76 Log10 CFU/mL blood and 5.85 Log10 CFU/mL blood and 4.64 Log10 CFU/mL blood and 4.99 Log10 CFU/mL blood	-1.08 Log10 CFU/mL blood and -1.00 Log10 CFU/mL blood and -2.20 Log10 CFU/mL blood and -1.85 Log10 CFU/mL blood	0.25 (≈ 0.221 µM)	4 (≈ 3.54 µM)	1 (≈ 0.885 µM)	<0.125	<0.125	0.25 (≈ 0.221 µM)	+2 (SQS + 2 = mild to moderate damage (overall score, 15 to <30))	3/3	<0.125	<0.125	–	1 (≈ 0.885 µM)

Source: paper PMC8956739, “A synthetic lipopeptide targeting top-priority multidrug-resistant Gram-negative pathogens” (Nature Communications, 2022)
